In series [1] the test system is Influenza A virus. As to the kind of experiment: Antiviral activity against Influenza A virus A/PR/8/34 strain incubated with MDCK cells assessed as cell protection after 72 hrs by phenotypic cell protection assay. To be noted: A/Puerto Rico/8/1934(H1N1). Format: functional, organism-based.
In series [2] the test system is Influenza A virus. As to the kind of experiment: Antiviral activity against influenza A virus A/PR/8/34 strain incubated with MDCK cells assessed as reduction of viral RNA level equal to 1% of control level after 72 hrs by branched DNA assay. It is filed as functional, organism-based. The note with it: A/Puerto Rico/8/1934(H1N1).
A short description of series [3]: Dissociation constant, pKa of the compound by UC titration method. Format: physicochemical.
Series [4] concerns the target Tyrosine-protein kinase JAK2 (Homo sapiens, UniProt O60674). Briefly: Inhibition of JAK2 (unknown origin).
In series [5] the target is Glycogen synthase kinase-3 (Homo sapiens, UniProt P49840+P49841). As to the kind of experiment: Inhibition of GSK3 (unknown origin). Format: protein assay.
In series [6] the target is T1, Receptor-type tyrosine-protein kinase FLT3 (Homo sapiens, UniProt P36888).
T1 sequence (P36888 whole entry): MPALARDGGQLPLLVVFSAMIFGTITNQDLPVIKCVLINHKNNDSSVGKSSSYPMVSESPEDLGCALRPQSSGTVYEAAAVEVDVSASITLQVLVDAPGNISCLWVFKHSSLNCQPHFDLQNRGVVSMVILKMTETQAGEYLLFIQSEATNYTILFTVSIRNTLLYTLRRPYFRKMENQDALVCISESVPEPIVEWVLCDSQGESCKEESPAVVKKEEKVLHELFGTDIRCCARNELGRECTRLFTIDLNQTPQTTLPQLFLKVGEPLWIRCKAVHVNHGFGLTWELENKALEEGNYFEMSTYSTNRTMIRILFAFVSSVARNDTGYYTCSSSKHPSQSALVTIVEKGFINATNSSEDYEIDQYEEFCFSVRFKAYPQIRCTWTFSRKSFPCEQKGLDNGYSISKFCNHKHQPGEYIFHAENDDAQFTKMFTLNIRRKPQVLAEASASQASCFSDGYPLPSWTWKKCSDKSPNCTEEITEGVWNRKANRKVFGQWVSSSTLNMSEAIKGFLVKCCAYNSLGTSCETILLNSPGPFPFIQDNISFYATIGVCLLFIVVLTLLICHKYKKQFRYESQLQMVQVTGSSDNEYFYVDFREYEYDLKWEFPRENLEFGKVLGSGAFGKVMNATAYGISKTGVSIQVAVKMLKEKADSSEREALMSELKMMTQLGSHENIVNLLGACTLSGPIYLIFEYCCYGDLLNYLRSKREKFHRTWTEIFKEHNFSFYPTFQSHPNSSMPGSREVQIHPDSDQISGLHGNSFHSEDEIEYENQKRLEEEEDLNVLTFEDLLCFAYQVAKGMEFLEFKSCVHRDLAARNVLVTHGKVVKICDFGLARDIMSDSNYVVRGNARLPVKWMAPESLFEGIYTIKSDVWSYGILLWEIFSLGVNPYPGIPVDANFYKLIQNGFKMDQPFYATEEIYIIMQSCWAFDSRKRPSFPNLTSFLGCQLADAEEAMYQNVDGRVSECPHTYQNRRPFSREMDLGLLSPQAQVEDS
As to the kind of experiment: Inhibition of FLT3 (unknown origin).

For series [7], the target named is Mitogen-activated protein kinase 10 (Homo sapiens, UniProt P53779). As to the kind of experiment: Inhibition of JNK3 (unknown origin).
Chain of Mitogen-activated protein kinase 10 (P53779 whole entry): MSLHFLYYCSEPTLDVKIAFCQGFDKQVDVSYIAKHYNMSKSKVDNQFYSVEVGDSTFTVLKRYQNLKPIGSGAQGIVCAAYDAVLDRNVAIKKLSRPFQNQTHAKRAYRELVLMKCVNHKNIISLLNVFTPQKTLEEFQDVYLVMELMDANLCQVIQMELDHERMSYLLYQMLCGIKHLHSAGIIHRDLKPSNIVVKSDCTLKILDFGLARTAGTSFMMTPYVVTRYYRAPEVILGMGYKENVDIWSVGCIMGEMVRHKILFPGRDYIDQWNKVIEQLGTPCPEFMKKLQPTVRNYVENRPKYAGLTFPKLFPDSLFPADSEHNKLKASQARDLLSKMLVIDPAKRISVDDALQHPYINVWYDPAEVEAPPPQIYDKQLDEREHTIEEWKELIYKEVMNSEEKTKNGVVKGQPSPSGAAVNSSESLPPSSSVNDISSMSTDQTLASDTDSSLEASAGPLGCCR
The target of series [8] is Rho-associated protein kinase (Homo sapiens, UniProt O75116+Q13464). As to the kind of experiment: Inhibition of ROCK (unknown origin). It is filed as protein-complex assay.
Series [9] addresses Vascular endothelial growth factor receptor 2 (Homo sapiens, UniProt P35968). Briefly: Inhibition of KDR (unknown origin).
Series [10] concerns the target Proto-oncogene tyrosine-protein kinase Src (Homo sapiens, UniProt P12931). As to the kind of experiment: Inhibition of SRC (unknown origin).
The target in series [11] is cAMP-dependent protein kinase catalytic subunit alpha (Homo sapiens, UniProt P17612). As to the kind of experiment: Inhibition of PKAa (unknown origin).
In series [12] the target is T2, Interleukin-1 receptor-associated kinase 4 (Homo sapiens, UniProt Q9NWZ3).
T2 sequence (Q9NWZ3 whole entry): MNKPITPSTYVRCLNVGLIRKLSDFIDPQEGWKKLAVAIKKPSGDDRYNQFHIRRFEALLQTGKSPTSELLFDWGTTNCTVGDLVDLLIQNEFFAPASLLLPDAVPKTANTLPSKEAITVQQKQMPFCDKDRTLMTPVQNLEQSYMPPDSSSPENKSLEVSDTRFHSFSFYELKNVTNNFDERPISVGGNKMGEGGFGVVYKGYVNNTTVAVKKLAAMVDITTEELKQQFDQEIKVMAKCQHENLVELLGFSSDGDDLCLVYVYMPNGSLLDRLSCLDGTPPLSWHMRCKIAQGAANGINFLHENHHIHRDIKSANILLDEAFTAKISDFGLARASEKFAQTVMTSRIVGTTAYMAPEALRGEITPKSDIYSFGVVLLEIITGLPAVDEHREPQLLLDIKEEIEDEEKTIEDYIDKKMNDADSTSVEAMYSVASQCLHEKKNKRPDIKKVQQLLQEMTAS
Briefly: Inhibition of IRAK4 (unknown origin).

Series [13] addresses Tyrosine-protein kinase SYK (Homo sapiens, UniProt P43405). Briefly: Inhibition of SYK (unknown origin).
Series [14] concerns the target Cyclin-dependent kinase 2 (Homo sapiens, UniProt P24941). Briefly: Inhibition of CDK2 (unknown origin).
The target in series [15] is Serine/threonine-protein kinase PLK1 (Homo sapiens, UniProt P53350). Briefly: Inhibition of PLK (unknown origin).
Series [16] deals with Hepatocyte growth factor receptor (Homo sapiens, UniProt P08581). Briefly: Inhibition of MET (unknown origin).
Chain of Hepatocyte growth factor receptor (P08581 whole entry, canonical isoform): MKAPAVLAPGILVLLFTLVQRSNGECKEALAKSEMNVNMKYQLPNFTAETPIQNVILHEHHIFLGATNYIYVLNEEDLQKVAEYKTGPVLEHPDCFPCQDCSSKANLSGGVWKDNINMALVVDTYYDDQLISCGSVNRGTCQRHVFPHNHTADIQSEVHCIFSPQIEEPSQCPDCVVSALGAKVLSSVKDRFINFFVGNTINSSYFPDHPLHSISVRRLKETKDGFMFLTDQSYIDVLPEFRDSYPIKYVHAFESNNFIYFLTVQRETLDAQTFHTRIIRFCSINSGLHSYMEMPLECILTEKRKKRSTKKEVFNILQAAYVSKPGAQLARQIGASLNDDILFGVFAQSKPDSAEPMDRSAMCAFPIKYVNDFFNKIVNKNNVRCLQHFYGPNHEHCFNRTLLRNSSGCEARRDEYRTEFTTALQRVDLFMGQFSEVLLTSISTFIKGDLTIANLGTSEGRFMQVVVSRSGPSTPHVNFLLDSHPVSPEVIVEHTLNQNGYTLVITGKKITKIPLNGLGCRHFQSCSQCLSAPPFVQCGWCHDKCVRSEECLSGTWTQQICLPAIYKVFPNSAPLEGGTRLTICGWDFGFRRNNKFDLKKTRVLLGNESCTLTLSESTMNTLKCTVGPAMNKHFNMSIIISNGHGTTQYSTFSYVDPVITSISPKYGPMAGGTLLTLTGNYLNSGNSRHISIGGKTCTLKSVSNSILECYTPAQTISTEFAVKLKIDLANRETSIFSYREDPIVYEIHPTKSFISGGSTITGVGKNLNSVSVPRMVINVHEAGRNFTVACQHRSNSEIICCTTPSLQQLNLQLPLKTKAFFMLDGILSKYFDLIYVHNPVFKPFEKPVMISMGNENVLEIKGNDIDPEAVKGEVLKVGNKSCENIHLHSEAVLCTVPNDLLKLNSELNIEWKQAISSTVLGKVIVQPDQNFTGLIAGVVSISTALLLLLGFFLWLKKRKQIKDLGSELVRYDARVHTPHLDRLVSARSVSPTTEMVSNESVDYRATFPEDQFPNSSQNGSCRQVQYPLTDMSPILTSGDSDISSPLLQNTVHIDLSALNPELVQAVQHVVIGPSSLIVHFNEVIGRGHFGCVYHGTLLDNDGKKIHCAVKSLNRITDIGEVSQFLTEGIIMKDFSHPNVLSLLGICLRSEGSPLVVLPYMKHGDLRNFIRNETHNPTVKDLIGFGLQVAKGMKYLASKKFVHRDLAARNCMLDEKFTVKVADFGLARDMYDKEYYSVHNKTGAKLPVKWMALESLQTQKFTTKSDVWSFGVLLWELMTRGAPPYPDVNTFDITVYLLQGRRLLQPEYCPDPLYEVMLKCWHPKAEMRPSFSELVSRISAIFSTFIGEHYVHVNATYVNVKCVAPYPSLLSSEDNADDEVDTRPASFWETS
Series [17] has as its target Phosphatidylinositol 4,5-bisphosphate 3-kinase catalytic subunit alpha isoform (Homo sapiens, UniProt P42336). Briefly: Inhibition of PI3Kalpha (unknown origin).
Series [18] has as its target T3, Phosphatidylinositol 4,5-bisphosphate 3-kinase catalytic subunit delta isoform (Homo sapiens, UniProt O00329).
T3 sequence (O00329 whole entry): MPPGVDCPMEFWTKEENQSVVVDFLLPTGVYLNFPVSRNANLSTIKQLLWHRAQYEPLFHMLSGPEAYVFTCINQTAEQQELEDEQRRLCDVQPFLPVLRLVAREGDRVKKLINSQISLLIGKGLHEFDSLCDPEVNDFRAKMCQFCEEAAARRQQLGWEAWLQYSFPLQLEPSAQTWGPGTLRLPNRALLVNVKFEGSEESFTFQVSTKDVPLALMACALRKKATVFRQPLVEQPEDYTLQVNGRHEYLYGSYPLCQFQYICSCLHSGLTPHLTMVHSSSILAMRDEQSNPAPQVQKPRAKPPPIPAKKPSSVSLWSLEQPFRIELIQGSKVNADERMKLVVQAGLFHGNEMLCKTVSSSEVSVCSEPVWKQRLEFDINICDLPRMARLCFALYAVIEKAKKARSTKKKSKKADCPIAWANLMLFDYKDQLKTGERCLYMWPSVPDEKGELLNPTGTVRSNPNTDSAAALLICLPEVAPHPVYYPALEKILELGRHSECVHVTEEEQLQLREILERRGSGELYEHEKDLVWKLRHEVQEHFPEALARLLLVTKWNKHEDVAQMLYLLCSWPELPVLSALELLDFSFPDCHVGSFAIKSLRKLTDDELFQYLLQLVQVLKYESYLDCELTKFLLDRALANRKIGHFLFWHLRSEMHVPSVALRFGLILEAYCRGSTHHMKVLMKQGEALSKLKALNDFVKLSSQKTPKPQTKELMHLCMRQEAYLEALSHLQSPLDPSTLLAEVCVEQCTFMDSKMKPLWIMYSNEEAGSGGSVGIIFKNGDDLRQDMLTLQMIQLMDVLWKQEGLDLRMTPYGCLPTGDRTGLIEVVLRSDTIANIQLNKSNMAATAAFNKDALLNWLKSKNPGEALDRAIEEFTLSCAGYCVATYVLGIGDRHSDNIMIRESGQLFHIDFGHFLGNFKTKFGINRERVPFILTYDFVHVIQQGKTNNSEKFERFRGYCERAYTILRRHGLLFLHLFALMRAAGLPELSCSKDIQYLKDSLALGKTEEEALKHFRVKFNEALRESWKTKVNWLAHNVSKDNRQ
Briefly: Inhibition of PI3Kdelta (unknown origin).

For series [19], the target named is Phosphatidylinositol 4,5-bisphosphate 3-kinase catalytic subunit gamma isoform (Homo sapiens, UniProt P48736). As to the kind of experiment: Inhibition of PI3Kgamma (unknown origin).
Chain of Phosphatidylinositol 4,5-bisphosphate 3-kinase catalytic subunit gamma isoform (P48736 whole entry, canonical isoform): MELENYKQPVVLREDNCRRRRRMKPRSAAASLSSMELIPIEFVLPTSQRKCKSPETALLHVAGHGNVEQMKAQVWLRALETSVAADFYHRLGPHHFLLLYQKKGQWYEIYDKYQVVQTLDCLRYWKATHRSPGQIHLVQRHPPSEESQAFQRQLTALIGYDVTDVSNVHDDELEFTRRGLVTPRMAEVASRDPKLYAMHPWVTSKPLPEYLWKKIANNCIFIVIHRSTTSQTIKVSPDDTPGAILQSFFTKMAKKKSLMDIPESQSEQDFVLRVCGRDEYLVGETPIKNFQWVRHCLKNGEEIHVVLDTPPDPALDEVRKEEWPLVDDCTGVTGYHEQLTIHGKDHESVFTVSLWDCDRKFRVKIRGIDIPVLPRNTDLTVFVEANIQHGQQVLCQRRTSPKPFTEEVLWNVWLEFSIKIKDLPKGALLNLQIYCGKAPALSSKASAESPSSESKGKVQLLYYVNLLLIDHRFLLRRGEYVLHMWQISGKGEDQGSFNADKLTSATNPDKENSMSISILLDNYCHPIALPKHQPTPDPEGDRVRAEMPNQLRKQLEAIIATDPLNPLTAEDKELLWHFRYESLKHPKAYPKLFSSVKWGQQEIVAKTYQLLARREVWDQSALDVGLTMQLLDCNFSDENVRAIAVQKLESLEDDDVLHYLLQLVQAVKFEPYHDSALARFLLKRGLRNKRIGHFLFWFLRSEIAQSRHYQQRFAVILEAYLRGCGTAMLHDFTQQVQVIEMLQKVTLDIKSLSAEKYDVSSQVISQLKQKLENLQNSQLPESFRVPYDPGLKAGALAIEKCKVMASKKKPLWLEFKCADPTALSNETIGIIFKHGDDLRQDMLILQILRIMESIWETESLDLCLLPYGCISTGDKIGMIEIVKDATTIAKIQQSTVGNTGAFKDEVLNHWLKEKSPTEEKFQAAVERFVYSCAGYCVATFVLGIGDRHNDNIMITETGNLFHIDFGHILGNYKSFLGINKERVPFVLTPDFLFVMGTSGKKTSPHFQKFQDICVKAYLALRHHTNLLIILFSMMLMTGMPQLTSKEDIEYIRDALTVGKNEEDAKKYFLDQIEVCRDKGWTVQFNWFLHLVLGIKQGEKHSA
Series [20] has as its target Phosphatidylinositol 4,5-bisphosphate 3-kinase catalytic subunit beta isoform (Homo sapiens, UniProt P42338). Briefly: Inhibition of PI3Kbeta (unknown origin).

Chain of Vascular endothelial growth factor receptor 2 (P35968 whole entry): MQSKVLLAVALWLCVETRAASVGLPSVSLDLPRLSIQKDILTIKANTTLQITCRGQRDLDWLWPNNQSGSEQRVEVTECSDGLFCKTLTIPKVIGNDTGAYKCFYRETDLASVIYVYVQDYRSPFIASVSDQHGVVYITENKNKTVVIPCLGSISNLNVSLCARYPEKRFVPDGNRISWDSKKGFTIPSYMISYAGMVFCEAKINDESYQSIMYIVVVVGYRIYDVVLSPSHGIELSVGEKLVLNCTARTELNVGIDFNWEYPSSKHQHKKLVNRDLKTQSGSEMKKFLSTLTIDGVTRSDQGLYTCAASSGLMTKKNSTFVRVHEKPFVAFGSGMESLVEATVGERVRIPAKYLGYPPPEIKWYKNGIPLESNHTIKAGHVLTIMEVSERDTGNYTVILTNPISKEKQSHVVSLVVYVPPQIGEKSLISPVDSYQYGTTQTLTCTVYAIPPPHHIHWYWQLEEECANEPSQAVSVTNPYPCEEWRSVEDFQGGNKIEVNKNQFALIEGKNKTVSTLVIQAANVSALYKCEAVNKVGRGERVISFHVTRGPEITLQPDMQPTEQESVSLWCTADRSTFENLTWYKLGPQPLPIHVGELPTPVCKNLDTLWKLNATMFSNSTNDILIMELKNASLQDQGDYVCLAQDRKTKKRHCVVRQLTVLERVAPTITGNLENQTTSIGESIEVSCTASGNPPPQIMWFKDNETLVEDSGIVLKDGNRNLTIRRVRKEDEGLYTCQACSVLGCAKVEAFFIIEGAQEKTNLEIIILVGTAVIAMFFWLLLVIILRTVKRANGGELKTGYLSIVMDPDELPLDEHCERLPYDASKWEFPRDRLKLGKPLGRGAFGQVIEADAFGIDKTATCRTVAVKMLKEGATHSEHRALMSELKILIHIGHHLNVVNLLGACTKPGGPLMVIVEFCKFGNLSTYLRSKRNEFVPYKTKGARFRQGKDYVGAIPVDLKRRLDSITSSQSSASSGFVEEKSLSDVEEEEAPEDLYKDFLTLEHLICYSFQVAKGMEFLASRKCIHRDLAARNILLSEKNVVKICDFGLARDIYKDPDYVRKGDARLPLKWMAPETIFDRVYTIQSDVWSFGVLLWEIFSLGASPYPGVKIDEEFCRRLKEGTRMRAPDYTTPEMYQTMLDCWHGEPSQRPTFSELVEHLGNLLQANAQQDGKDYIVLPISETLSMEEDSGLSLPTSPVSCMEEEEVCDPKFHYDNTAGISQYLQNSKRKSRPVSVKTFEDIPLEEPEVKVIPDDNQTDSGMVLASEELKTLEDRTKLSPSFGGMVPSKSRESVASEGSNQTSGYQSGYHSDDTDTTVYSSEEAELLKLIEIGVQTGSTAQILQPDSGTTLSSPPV
Chain of Proto-oncogene tyrosine-protein kinase Src (P12931 2-536 limits assumed): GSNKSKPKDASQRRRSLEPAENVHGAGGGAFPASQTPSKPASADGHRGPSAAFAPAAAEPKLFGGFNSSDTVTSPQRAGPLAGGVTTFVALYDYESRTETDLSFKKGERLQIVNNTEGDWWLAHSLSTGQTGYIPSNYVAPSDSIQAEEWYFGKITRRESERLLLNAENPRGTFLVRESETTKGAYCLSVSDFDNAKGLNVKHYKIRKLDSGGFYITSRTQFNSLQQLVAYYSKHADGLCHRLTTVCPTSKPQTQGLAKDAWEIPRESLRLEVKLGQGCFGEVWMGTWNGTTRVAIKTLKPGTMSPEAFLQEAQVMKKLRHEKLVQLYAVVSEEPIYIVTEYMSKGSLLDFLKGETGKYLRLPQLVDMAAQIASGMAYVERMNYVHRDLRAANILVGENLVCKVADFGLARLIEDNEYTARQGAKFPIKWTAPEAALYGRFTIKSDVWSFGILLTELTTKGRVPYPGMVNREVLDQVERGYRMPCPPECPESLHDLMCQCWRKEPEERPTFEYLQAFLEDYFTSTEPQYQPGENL

As a reminder, the IC50 is the concentration that gives 50% inhibition. Broadly, the EC50 is the concentration needed to bring the measured effect to its halfway point. A word on the EC99: it is the concentration needed for an effect of 99%. In general, pKa refers to the negative logarithm of the acid dissociation constant. In general, Ki refers to a dissociation constant, usually derived from enzyme kinetics or from competition with a known ligand. Higher therefore signals a looser hold on the target. Take `O=c1[nH]c(=O)n(C[C@H]2C3CCC(CC3)[C@@H]2Nc2nc(-c3c[nH]c4ncc(F)cc34)ncc2F)o1` (mixture of isomers): in series [1], the IC50 was 0.048 µM. In series [2], the concentration giving a half-maximal response (EC50) was 0.036 µM. For the same molecule, the EC99 in series [2] amounted to 0.21 µM. This molecule had a pKa in series [3] of 5.2. Moreover, the Ki was 0.27 µM in series [4]; 0.023 µM in series [5]; 0.21 µM in [6]; above 4 µM in series [7]; above 4 µM in series [8]; above 4 µM in [9]. For the same molecule, the Ki is above 4 µM in series [10]; above 4 µM in series [11]; above 4 µM in series [12]; above 4 µM in series [13]; above 4 µM in series [14]; 1.1 µM in series [15]. Moreover, the inhibitory constant (Ki) in series [16] is above 4 µM; in [17], 1.5 µM; in [18], 0.18 µM; in series [19], 0.63 µM; in series [20] it was 2 µM.

As for `OCC(O)[C@H]1C2CCC(CC2)[C@@H]1Nc1nc(-c2c[nH]c3ncc(F)cc23)ncc1F` (mixture of isomers), the half-inhibitory concentration (IC50) in [1] turned out to be 0.068 µM. In [2], the concentration for a half-maximal effect (EC50) was found to be 0.041 µM. The EC99 in [2] was determined as 0.18 µM. Further, the inhibition constant (Ki) is 0.39 µM in series [4]; 0.078 µM in series [5]; 0.16 µM in series [6]; above 4 µM in series [7]; 1.5 µM in series [8]; 2.4 µM in series [9]. Besides, the Ki in [10] is 3.5 µM; in [11], 0.23 µM; in [12], 2.7 µM; in series [13] it was 3.4 µM; in series [14], above 4 µM; in series [15], 0.51 µM. Besides, the inhibitory constant (Ki) is above 4 µM in [16]; 2.6 µM in [17]; 1.6 µM in series [18]; 0.71 µM in series [19]; 2.5 µM in series [20].

The record behind these values is ChEMBL document CHEMBL3399966, “Isosteric replacements of the carboxylic acid of drug candidate VX-787: Effect of charge on antiviral potency and kinase activity of azaindole-based influenza PB2 inhibitors” (Bioorg Med Chem Lett, 2015).
